Assay results reported in patent US7166618B2, “Nitrosated and nitrosylated cyclooxygenase-2 inhibitors, compositions and methods of use” (NitroMed, Inc., priority 1999, dated 2007).

Assays:
ovine COX-1 = target: T1, ovine COX-1 (Ovis aries, UniProt P05979); experiment: biochemical
T1 sequence (P05979 25-600): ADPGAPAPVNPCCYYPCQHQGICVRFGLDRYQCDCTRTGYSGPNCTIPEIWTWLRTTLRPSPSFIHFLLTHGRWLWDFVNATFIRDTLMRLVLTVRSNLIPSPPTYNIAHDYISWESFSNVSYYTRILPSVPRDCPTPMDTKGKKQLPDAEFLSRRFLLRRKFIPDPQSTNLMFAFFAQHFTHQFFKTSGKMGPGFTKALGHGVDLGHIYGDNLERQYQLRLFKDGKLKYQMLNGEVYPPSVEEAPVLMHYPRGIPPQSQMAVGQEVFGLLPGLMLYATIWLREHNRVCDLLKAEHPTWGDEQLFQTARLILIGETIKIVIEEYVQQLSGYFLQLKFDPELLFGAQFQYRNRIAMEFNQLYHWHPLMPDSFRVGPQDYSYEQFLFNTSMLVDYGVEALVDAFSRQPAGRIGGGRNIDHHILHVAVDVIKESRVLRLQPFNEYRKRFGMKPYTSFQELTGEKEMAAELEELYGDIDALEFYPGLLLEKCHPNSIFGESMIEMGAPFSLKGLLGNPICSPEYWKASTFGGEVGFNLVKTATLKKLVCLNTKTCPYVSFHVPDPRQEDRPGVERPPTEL
Protocol: (§1) The ovine COX-1 and COX-2 activities and the measurement of the prostaglandin products synthesized were performed using the COX Inhibitor Screening Assay (Cayman Chemical, Ann Arbor, Mich., which also contained the Prostaglandin Screening EIA Kit, used for prostaglandin quantification). The test compounds were dissolved at 50 times the highest final reaction concentration in DMSO or any other suitable solvent as stock solutions. These stock solutions were then diluted in the same solvent. Eight glass test tubes (13×100 mm) were placed in a 37° C. water bath. To each test tube was added 950 μL of reaction buffer (0.1 M Tris-HCl, pH 8.0, containing 5 mM EDTA, and 2 mM phenol), 10 μL of 100 µM heme solution, and 10 μL (5 units) of either ovine COX-1 or COX-2 and the resulting mixture was incubated with the enzyme for 2 minutes. Twenty μL of the solvent was added to one tube (100% initial activity or solvent control) and 20 μL of each dilution of the test compound was added to one tube each. Each tube was vortexed immediately after the addition. The enzyme was incubated with the inhibitor for 3.5 minutes at 37° C. The enzymatic reaction was then initiated by the addition of 10 μL of freshly prepared 10 mM arachidonic acid (neutralized with KOH), vortexed and then incubated for 2 minutes at 37° C. The reaction was terminated by the addition of 50 μL of 1 M HCl, vortexed and placed at room temperature. One hundred microliters of a saturated stannous chloride solution (50 mg/mL of 0.1 M HCl) was added and the reaction mixture was allowed to stand at room temperature for at least 5 minutes.
(§2) The prostaglandins (PG) produced in the reactions were assayed, after a 2,000-fold dilution, using the Prostaglandin Screening EIA Kit (Cayman Chemical, Ann Arbor, Mich.). The assay-contains an antibody with broad specificity for all the prostaglandin families (PGF, PGE, PGD, and thromboxane B-type) synthesized in the COX-1/COX 2 reactions. The synthesized prostaglandin competes with a PG-tagged acetylcholine esterase tracer for binding to the PG antibody. Binding of synthesized PG lowers the calorimetric development of the Ellman's Reagent (computed as % B/B0). The actual amount of synthesized PG was interpolated from a standard curve using known amounts of supplied prostaglandin E2 (PGE2) (PGE2 concentration vs. % B/B0). The data generated were the mean±standard deviation of triplicate wells in the EIA for a single reaction at a given inhibitor concentration.

[1] = system: carrageenan-induced rat paw edema; experiment: Carrageenan-induced rat paw edema test; format: in vivo; details: rats dosed intragastrically, paw volume 3 hours after carrageenan
Protocol: The carrageenan-induced rat paw edema test was used to measure antiinflammatory activity. The paw edema test was performed according to the method of Winter et al, Proc. Soc. Exp. Biol. Med. 111: 544–547, 1962. Male Sprague-Dawley rats (200–250 g) were fasted for 24 hours with water ad libitum. The rats were dosed intragastrically with test compounds in a volume of 5 mL/kg. One hour after dosing the paw volume was measured. Then each rat received a subplantar injection of 50 μl of 1% suspension of carrageenan. Three hours later, the paw volume was measured and compared with the initial volume measured […]. The increase in paw volume is presented as the mean±SEM for 5 rats per group. Data were analyzed by performing an ANOVA test followed by a Student-Keuls post hoc test.

ovine COX-2 = target: T2, ovine COX-2 (Ovis aries, UniProt P79208); experiment: biochemical; format: biochemical
T2 sequence (P79208 17-603): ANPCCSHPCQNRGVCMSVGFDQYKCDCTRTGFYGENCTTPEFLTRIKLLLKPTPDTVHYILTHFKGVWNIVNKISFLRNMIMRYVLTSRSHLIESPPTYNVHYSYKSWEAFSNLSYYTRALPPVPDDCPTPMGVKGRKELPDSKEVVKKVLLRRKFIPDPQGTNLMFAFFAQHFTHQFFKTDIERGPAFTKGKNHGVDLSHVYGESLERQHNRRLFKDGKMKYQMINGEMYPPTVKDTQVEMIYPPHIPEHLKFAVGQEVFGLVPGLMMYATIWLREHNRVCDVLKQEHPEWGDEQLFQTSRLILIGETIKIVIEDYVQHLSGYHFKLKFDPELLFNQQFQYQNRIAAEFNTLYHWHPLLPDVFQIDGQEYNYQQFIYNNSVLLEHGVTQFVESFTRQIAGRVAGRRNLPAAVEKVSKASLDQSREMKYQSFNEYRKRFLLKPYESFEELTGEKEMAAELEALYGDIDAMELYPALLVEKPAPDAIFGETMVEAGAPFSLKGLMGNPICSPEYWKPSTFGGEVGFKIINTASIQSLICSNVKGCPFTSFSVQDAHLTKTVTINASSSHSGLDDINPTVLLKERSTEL
Protocol: as §1, §2

In the case of `NS(=O)(=O)c1ccc(-c2c(-c3ccccc3)noc2CO[N+](=O)[O-])cc1` [Example 2b, 4-(5-((Nitrooxy)methyl)-3-phenylisoxazol-4-yl)benzenesulfonamide], the inhibition at 100 µM (ovine COX-1; Ovine COX-1 (footnote a), at 100 μM) is reported as 0%, the IC50 (ovine COX-1; ovine COX-1) is reported as > 300000 nM and the “paw volume (antiinflammatory activity)” value [1] is reported as “reduced the paw volume”. It also gave an IC50 (ovine COX-2) of 1200 nM.
